# In US20190078143A1, “METHOD FOR TREATING NEURODEVELOPMENTAL DISORDERS” (New York University, priority 2017, published 2019):
# “Also recorded” adds a separate entry of the source.
# Assays:
# IL-17a = assay: Maternal plasma IL-17a ELISA after poly(I:C) at E12.5; format: in vivo, mouse; settings: poly(I:C)-injected pregnant dams, 48 hrs after poly(I:C) at E12.5, compared to control group
# Protocol: (§1) Mice were mated overnight and females were checked daily for the presence of seminal plugs, noted as embryonic day 0.5. On E12.5, pregnant female mice were weighed and injected with a single dose (20 mg/kg; i.p.) of poly(I:C) (Sigma Aldrich) or PBS vehicle. Each dam was returned to its cage and left undisturbed until the birth of its litter. All pups remained with the mother until weaning on postnatal day 21-28 (P21-P28), at which time mice were group housed at a maximum of 5 per cage with same-sex littermates.
# (§2) For co-housing experiments, age-matched SFB-absent mice (from Jackson Laboratory) were co-housed with SFB-present mice (from Taconic Biosciences) in sterilized cages for two weeks at a ratio of 2:3, with unrestricted access to food and water. For SFB-gavaging experiments, four fecal pellets of SFB mono-colonized mice (provided by Dan Littman) were dissolved in 20 ml sterile PBS and filtered through a 100 μm cell strainer. 200 μl of fecal suspensions were gavaged via oral route to 4 week-old female Jackson mice. Control mice were gavaged with PBS. The SFB colonization was tested on day 7 following co-housing or SFB-gavaging. […]
# IL-17a, TNF-α, IFN-β, IL-1β and IL-23 levels were measured according to the manufacturer's protocol (BioLegend). IL-6 and IFN-γ levels were measured according to the manufacturer's protocol (eBioscience).
# [1] = test system: Th17 cells in the small intestine; assay: Flow cytometry of ileal CD4+ T cells for IL-17a and RORγt in poly(I:C)-treated dams; format: in vivo, mouse; settings: poly(I:C)-injected pregnant dams, E14.5, compared to control group
# Protocol: (§3) For co-housing experiments, age-matched SFB-absent mice (from Jackson Laboratory) were co-housed with SFB-present mice (from Taconic Biosciences) in sterilized cages for two weeks at a ratio of 2:3, with unrestricted access to food and water. For SFB-gavaging experiments, four fecal pellets of SFB mono-colonized mice (provided by Dan Littman) were dissolved in 20 ml sterile PBS and filtered through a 100 μm cell strainer. 200 μl of fecal suspensions were gavaged via oral route to 4 week-old female Jackson mice. Control mice were gavaged with PBS. The SFB colonization was tested on day 7 following co-housing or SFB-gavaging. For ablation of intestinal bacteria, Taconic-derived female mice were orally gavaged with vancomycin hydrochloride (Fisher) (2.5 mg/kg) every two days, starting 7 days prior to breeding. Mouse fecal pellets were collected and stored at −80° C. before and after vancomycin treatments.
# For mononuclear cell isolations, both mesenteric fat tissues and Peyer's patches were carefully removed from intestinal tissues. […]
# Mononuclear cells were incubated with or without 50 ng/ml phorbol myristate acetate (PMA) (Sigma) and 500 ng/ml ionomycin (Sigma) in the presence of GolgiStop (BD) in complete T cell media at 37° C. for 5 h. […] All data were re-analyzed using FlowJo (Tree Star).
# [2] = test system: cortical patches (SATB2) in primary somatosensory cortex; assay: Cortical patches by SATB2 immunohistochemistry in adult MIA offspring brains; format: in vivo, mouse; settings: offspring of poly(I:C)-injected mothers pre-treated with vancomycin
# Protocol: as §1
# as §2, with “strainer.” for “strainer. 200 μl of fecal suspensions were gavaged via oral route to 4 week-old female Jackson mice. Control mice were gavaged with PBS. The SFB colonization was tested on day 7 following co-housing or SFB-gavaging.”
# Adult male mice were perfused and fixed with 4% paraformaldehyde in PBS for overnight at 4° C. […] The cortical malformation images were analyzed using Image J software. […]
# Cortical patches were identified as cortical regions devoid of SATB2 expression. The size of the cortical patches in the S1 was calculated using Zen software (Carl Zeiss). […] SATB2 positive cells were quantified manually.
# MIA offspring = assay: Behavioral assays (USV, marble burying, open field, three-chamber sociability) in offspring of poly(I:C)-injected dams; format: in vivo, mouse; settings: poly(I:C)-injected mothers pre-treated with vancomycin, oral gavage every two days from 7 days before breeding
# Protocol: as §1, with “littermates. […]” for “littermates.”
# On P9, both male and female offspring mice were removed from the nest and habituated to the testing room for 30 min. […] Ultrasonic vocalizations (USVs) were detected for 3 min using an UltraSoundGateCM16/CMPA microphone (AviSoft) in the sound attenuation chamber under stable temperature and light control, and recorded with SAS Prolab software (AviSoft). USVs were measured between 33-125 kHz using Ultravox software (Noldus Information Technology, USA). Due to the unreliability of automated USV scoring, all pup USV calls were counted manually and plotted on the y-axis. […]
# 8-12-week-old male mice were tested for social behavior using the three-chamber social approach paradigm. […] Experimental mice were given 10 min to explore both chambers and measured for approach behavior as interaction time (i.e. sniffing, approach) with targets in each chamber (within 2 cm). […]
# [3] = test system: segmented filamentous bacteria (SFB); assay: 16S rRNA qPCR of SFB levels in mouse fecal samples; format: in vivo; settings: B6 mice before/after vancomycin treatment
# Protocol: as §3
# Bacterial genomic DNA was isolated from the fecal pellets of mice with phenol-chloroform extraction. qPCR was performed to quantify relative abundance of SFB, human commensal bacteria or total bacteria using group specific 16S rDNA primers (Table 3, FIG. 16). Undetected qPCR values from non-colonized samples were replaced with a Ct value of 40 for the purpose of comparison.
# [4] = test system: segmented filamentous bacteria (SFB); settings: commensal bacteria in laboratory mice, general statement; cited from earlier work
compound,measurement,setting,value
CN[C@H](CC(C)C)C(=O)N[C@H]1C(=O)N[C@@H](CC(N)=O)C(=O)N[C@H]2C(=O)N[C@H]3C(=O)N[C@H](C(=O)N[C@H](C(=O)O)c4cc(O)cc(O)c4-c4cc3ccc4O)[C@H](O)c3ccc(c(Cl)c3)Oc3cc2cc(c3O[C@@H]2O[C@H](CO)[C@@H](O)[C@H](O)[C@H]2O[C@H]2C[C@](C)(N)[C@H](O)[C@H](C)O2)Oc2ccc(cc2Cl)[C@H]1O [vancomycin],levels of IL-17a in the maternal plasma,IL-17a,reduction in the levels of IL-17a
same,proportion of Th17 cells in the small intestine,[1],decrease in the proportion of Th17 cells
same,cortical patches in adult offspring,[2],failed to develop cortical patches
same,"development of behavioral abnormalities in MIA offspring (USV, marble burying, open field center time, % interaction)",MIA offspring,prevented induction of behavioral abnormalities; also recorded: prevented development of all four behavioral abnormalities
same,intestinal colonization by SFB (qPCR of fecal samples),[3],severely reduced
same,susceptibility of SFB to vancomycin,[4],susceptible
